Patent US20140120087A1, “TRIAZOLOPYRIDINES” (BAYER INTELLECTUAL PROPERTY GMBH, priority 2011, published 2014)

Tests used:
Mps-1 kinase [1] = target: T1, Mps-1 kinase (Homo sapiens, UniProt P33981); assay: Mps-1 kinase assay with 10 μM ATP (TR-FRET)
T1 sequence (P33981 1-857): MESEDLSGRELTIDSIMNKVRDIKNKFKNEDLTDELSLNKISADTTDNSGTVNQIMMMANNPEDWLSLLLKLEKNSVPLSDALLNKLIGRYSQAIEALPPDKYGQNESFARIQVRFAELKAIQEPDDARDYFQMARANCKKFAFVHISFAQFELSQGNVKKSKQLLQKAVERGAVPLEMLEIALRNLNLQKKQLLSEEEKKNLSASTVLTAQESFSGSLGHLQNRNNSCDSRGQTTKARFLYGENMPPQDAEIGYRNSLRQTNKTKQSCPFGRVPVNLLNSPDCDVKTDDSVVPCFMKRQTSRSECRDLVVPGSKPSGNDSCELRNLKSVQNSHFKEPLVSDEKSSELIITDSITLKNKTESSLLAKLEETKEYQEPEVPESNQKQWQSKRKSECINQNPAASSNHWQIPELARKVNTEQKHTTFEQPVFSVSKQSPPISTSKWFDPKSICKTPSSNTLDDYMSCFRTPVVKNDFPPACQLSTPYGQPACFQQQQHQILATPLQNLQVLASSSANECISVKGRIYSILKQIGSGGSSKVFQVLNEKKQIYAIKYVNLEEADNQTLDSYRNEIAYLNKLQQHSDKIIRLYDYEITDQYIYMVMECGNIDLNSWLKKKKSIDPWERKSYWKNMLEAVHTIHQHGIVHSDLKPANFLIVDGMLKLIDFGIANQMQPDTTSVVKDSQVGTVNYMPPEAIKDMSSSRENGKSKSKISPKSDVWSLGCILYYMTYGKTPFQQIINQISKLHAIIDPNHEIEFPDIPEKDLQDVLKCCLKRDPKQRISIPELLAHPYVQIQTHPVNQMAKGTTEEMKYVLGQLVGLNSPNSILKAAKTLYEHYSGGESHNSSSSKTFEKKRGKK

Mps-1 kinase [2] = target: T1, Mps-1 kinase; assay: Mps-1 kinase assay with 2 mM ATP (TR-FRET)

Structure (SMILES)	IC50 (Mps-1 kinase [1])	IC50 (Mps-1 kinase [2])
COc1cc([S@@+](C)[O-])ccc1Nc1nc2ccc(-c3ccc(NC(=O)Cc4ccc(F)cc4)cc3)cn2n1 (stereo in doubt) [Example 12.13, 2-(4-fluorophenyl)-N-[4-(2-{[2-methoxy-4-(methyl-sulfinyl)phenyl]amino}-[1,2,4]triazolo[1,5-a]pyridin-6-yl)phenyl]acetamide]	≤ 1 nM	≤ 1 nM
Cc1cc(C(N)=O)ccc1Nc1nc2ccc(-c3ccc(C(=O)NCc4ccc(F)cc4)cc3)cn2n1 [Example 12.65, 4-[(6-{4-[(4-fluorobenzyl)-carbamoyl]phenyl}[1,2,4]triazolo [1,5-a]pyridin-2-yl)-amino]-3-methylbenzamide]	≤ 1 nM	≤ 1 nM
CC(C)S(=O)(=O)c1ccc(Nc2nc3ccc(-c4ccc(C(=O)NCc5ccc(F)cc5)cc4)cn3n2)c(OC(F)F)c1 [Example 12.62, 4-(2-{[2-(difluoromethoxy)-4-(propan-2-ylsulfonyl)-phenyl]amino}[1,2,4]-triazolo[1,5-a]pyridin-6-yl)-N-(4-fluorobenzyl)-benzamide]	≤ 1 nM	3.5 nM
COc1cc(C(=O)NCC(F)F)ccc1Nc1nc2ccc(-c3ccc(NC(=O)Cc4ccc(F)cc4)cc3)cn2n1 [Example 12.07, N-(2,2-difluoroethyl)-4-{[6-(4-{[(4-fluorophenyl)-acetyl]amino}phenyl)[1,2,4]triazolo[1,5-a]pyridin-2-yl]amino}-3-methoxy-benzamide]	≤ 1 nM	≤ 1 nM

Continued, values first:

IC50 (Mps-1 kinase [1])	IC50 (Mps-1 kinase [2])	Structure (SMILES)
≤ 1 nM	≤ 1 nM	COc1cc(S(C)(=N)=O)ccc1Nc1nc2ccc(-c3ccc(NC(=O)Cc4ccc(F)cc4)cc3)cn2n1 (stereo not drawn) [Example 12.82, 2-(4-fluorophenyl)-N-[4-(2-{[2-methoxy-4-(S-methylsulfonimidoyl)phenyl]-amino}[1,2,4]triazolo[1,5-α]pyridin-6-yl)phenyl]acetamide]
≤ 1 nM	6.1 nM	CCOc1cc(S(=O)(=O)CC)ccc1Nc1nc2ccc(-c3ccc(C(=O)NCc4ccc(F)cc4)cc3)cn2n1 [Example 02.26, 4-(2-{[2-ethoxy-4-(ethylsulfonyl)phenyl]amino}[1,2,4]triazolo[1,5-α]-pyridin-6-yl)-N-(4-fluorobenzyl)benzamide]
≤ 1 nM	≤ 1 nM	CCOc1cc(C(=O)NCCN(C)C)ccc1Nc1nc2ccc(-c3ccc(C(=O)NCc4ccc(F)cc4)cc3)cn2n1 [Example 12.55, N-[2-(dimethylamino)ethyl]-3-ethoxy-4-[(6-{4-[(4-fluoro-benzyl)carbamoyl]phenyl}-[1,2,4]triazolo[1,5-a]pyridin-2-yl)amino]benzamide]
≤ 1 nM	6.1 nM	CCS(=O)(=O)c1ccc(Nc2nc3ccc(-c4ccc(C(=O)NCc5ccc(F)cc5)cc4)cn3n2)c(OC(F)F)c1 [Example 12.61, 4-(2-{[2-(difluoromethoxy)-4-(ethylsulfonyl)phenyl]-amino}[1,2,4]triazolo[1,5-a]pyridin-6-yl)-N-(4-fluorobenzyl)benzamide]
≤ 1 nM	2.3 nM	Cc1cc(C(=O)NCC(F)(F)F)ccc1Nc1nc2ccc(-c3ccc(NC(=O)Cc4ccc(F)cc4)cc3)cn2n1 [Example 12.29, 4-{[6-(4-{[(4-fluorophenyl)-acetyl]amino}phenyl)[1,2,4]triazolo[1,5-a]pyridin-2-yl]amino}-3-methyl-N-(2,2,2-trifluoroethyl)-benzamide]
